# Measured values published in patent publication US20260028390A1, “ALPHA1-ANTITRYPSIN FOR USE IN THE TREATMENT OF DISEASES OR DISORDERS OF THE NERVOUS SYSTEM SUCH AS CHRONIC INFLAMMATORY DEMYELINATING POLYNEUROPATHY” (Ageronix SA, priority 2022, published 2026).
# Values joined by “and” are separate entries in the source; they are usually repeats but may differ in a detail not shown here. Equal values may be shown once.
# Key:
# [1] = test system: CIDP mice; test: Sciatic nerve electrophysiology (CMAP, NCV), CIDP mouse model; assay type: in vivo; details: for Compound muscle action potential (Mean ± SD) / Nerve conduction velocity (Mean ± SD): CIDP mice; for Electrophysiology, Amplitude / Electrophysiology, Conduction velocity / Electrophysiology, T1 distal / Electrophysiology, T2 proximal: per mouse, listed as hAAT
# Procedure: C57BL/6 mice were received at 8 weeks of age and housed under controlled conditions for the duration of the study. Three groups of 4 animals each were assigned to the following subcutaneous treatments twice daily at 7:00 AM and 7:00 PM for 2 weeks, from 20 to 35 days after the start of disease induction: • Wild type (WT) mice receiving the vehicle, 0.9% NaCl (positive control) • CIDP mice receiving the vehicle, 0.9% NaCl (negative control) • CIDP mice receiving human AAT (AAT), 50 mg/kg per injection
# Disease induction consisted in subcutaneous injection of mouse sciatic nerve homogenate in phosphate buffer saline (PBS)+Freund's adjuvant mixture at 10 mL/kg. For each treatment, 3 different body sites injections were performed. Control mice also received three subcutaneous injections of PBS+Freund's adjuvant at the same 3 different body sites.
# On the first (Day 20) and last (Day 35) day of treatment, the neuromuscular and performance of animals was tested with a rotarod test, grip test and a sensory test using the Von Frey filament test, as well as sciatic nerve electrophysiology test. After the last treatment at Day 35, these tests were repeated, animals were sacrificed and the left sciatic nerve was sampled for histological evaluation of the number and size of […].
# [2] = test system: CMT1A mice B6.Cg-Tg(PMP22)C3Fbas/J; test: Grip strength, CMT mice treated with AAT 180 mg/kg/day sc; assay type: in vivo, mouse; details: for Grip strength, group Mean: 8 animals
# Procedure: CMT MOUSE MODEL: Non-humanized CMT1A mice B6.Cg-Tg(PMP22)C3Fbas/J (three copies of the PMP22 gene), three groups of 8 animals each.
# DOSAGE: 180 mg/kg/day non-clinical grade AAT (Sigma)
# ADMINISTRATION: Subcutaneous (SC) (bi-daily injection of 90 mg/kg)
# Animals were received at 6 weeks of age and housed under controlled conditions for the duration of the study. The study comprised two groups of 8 transgenic mice (CMT mice) each and one group of 8 age matched wild type (WT) C57B16 mice, serving as positive control. […]
# The efficacy parameters included: • neuromuscular performance (rotarod latency to fall and grip strength test), • sciatic nerve electrophysiology (CMAP amplitude and NCV) • cytokine (IL-6 and TNFα), as well as NfL analysis • sciatic nerve histology (number of axons and axonal diameter),
# After the last treatment on Day 15, these tests were repeated. Animals were then left untreated for 2 additional weeks to evaluate the duration of the treatment effect. Following the 2-week treatment-free period until 12 weeks of age (Day 30), the behavioural and electrophysiological tests were repeated.
# [3] = test system: SH-SY5Y cells; test: Cell growth (cell count, morphology) of SH-SY5Y treated with 6-OHDA; assay type: cell-based; details: 6-OHDA combined with AAT 25 μM, day 4 of culture, p=0.003
# Procedure: SH-SY5Y cells, which are commonly used to model neurodegenerative disorders, were used to produce an in vitro Parkinson's model (Que R, et al., 2021, Front. Immunol. 12). Cells were cultured in DMEMF12/Glutamax supplemented with 10% FBS.
# Cells were treated for 24 hours with the neurotoxin 6-hydroxydopamine (6-OHDA, Sigma Aldrich 162957) at 50, 100 μM concentrations alone or in combination with AAT 25 μM (AAT plasma derived, Sigma Aldrich batch A9024). Cells treated with AAT alone or in combination with 6-OHDA for 24 hours, were then incubated with fresh AAT for additional 24 hours. Control cells were treated with PBS.
# At day 0 cells were plated in equally number in 24-well plate, the day after they were treated as described above, and final total cell count was performed at day 4 of culture (cell growth). Cell viability was assessed with Cell Counting Kit-8 (CCK-8; Sigma Aldrich 96992). After treatments, cells were incubated with 10 μl of CCK-8 solution for 2 hours in the incubator. Absorbance was measured at 450 nm using SpectraMax iD3 Microplate Reader. Experiments were performed in triplicate.
# [4] = Body weight, CMT1A mouse study (AAT 50 mg/kg sc twice daily); assay type: in vivo
# From the text: As a murine model of CMT1A we used C3-PMP22 transgenic mice (B6.Cg-Tg(PMP22)C3Fbas/J, The Jackson Laboratory) which express three copies of a wild-type human peripheral myelin protein 22 (PMP22) gene (Verhamme, Camiel, et al. Journal of Neuropathology & Experimental Neurology 70.5 (2011): 386-398). Mice were housed in macrolon cages with filter hoods, in a continuously air-filtered room, thereby avoiding contamination. During experiments, paired animals were caged at a constant temperature with a day/night cycle of 12/12 hours. Animals were fed (control tap water and nutrition) ad libitum. Animal protocol is approved by the Animal Studies Committee of Languedoc Roussillon. This protocol and the laboratory procedures comply with French legislation, which implements the European Directives (Reference Number: D3417223, APAFIS #23920-2020020320279696 v3). Animal health was followed on a daily basis to ensure that only animals in good health enter the testing procedures and follow up the study.
# (§1) Animals were split in 3 groups (wild-type control (subcutaneous 0.9% NaCl), CMT1A-vehicle (subcutaneous 0.9% NaCl), CMT1A-human alpha-1 antitrypsin (subcutaneous, twice daily, 50 mg/kg per injection)) of 3 mice each (3 weeks old males of 18±2.5 g at the beginning of study) and all went through the following protocol after 7 days of acclimation on site.
# [5] = test system: plasma TNFα; test: Plasma TNFα concentration, CMT1A mouse study (50 mg/kg twice daily); assay type: in vivo; details: for Plasma TNFα concentration (Mean ± SEM): CMT1A mice
# Procedure: as §1
# Starting from the age of 4 weeks, animals were subjected to blood samplings for the determination of interleukin-6 (IL-6) and tumor necrosing factor alpha (TNFα) levels, as described in FIG. 16.
# [6] = Day 35, AAT 50 mg/kg sc twice daily
# [7] = baseline (6 weeks old), CMT + hAAT, individual animal
substance,measurement,setting,value
alpha1-antitrypsin (AAT) protein,NCV compared to the vehicle treated group,[1]; CIDP + AAT 50 mg/kg sc twice daily,increase
same,CMAP amplitude compared to the CIDP+vehicle treated group,"[1]; CIDP + AAT 50 mg/kg sc twice daily, Day 35",increase
same,Compound muscle action potential (Mean ± SD),[1]; Day 20 (baseline),3.73 ± 0.42 mV
same,Nerve conduction velocity (Mean ± SD),[1]; Day 20 (baseline),13.10 ± 4.49 m/s
same,Compound muscle action potential (Mean ± SD),[1]; [6],4.56 ± 0.76 mV
same,Nerve conduction velocity (Mean ± SD),[1]; [6],16.85 ± 2.43 m/s
same,"Electrophysiology, Amplitude, group MEAN",[1]; Day 20,3.731 mV
same,"Electrophysiology, Conduction velocity, group MEAN",[1]; Day 20,13.098 m/s
same,"Electrophysiology, Amplitude, group MEAN",[1]; Day 35,4.558 mV
same,"Electrophysiology, Conduction velocity, group MEAN",[1]; Day 35,16.851 m/s
same,"Electrophysiology, Amplitude",[1]; Day 20,3.734 mV and 3.562 mV and 3.318 mV and 4.308 mV
same,"Electrophysiology, Conduction velocity",[1]; Day 20,16.096 m/s and 11.057 m/s and 7.775 m/s and 17.463 m/s
same,"Electrophysiology, T1 distal",[1]; Day 20,2.673 ms and 3.177 ms and 2.864 ms and 3.114 ms
same,"Electrophysiology, T2 proximal",[1]; Day 20,3.605 ms and 4.533 ms and 4.793 ms and 3.973 ms
same,"Electrophysiology, Amplitude",[1]; Day 35,3.490 mV and 5.146 mV and 5.068 mV and 4.527 mV
same,"Electrophysiology, Conduction velocity",[1]; Day 35,16.007 m/s and 16.112 m/s and 14.881 m/s and 20.402 m/s
same,"Electrophysiology, T1 distal",[1]; Day 35,4.089 ms and 3.902 ms and 4.177 ms and 3.970 ms
same,"Electrophysiology, T2 proximal",[1]; Day 35,5.026 ms and 4.833 ms and 5.185 ms and 4.705 ms
same,Grip strength (Mean ± SD),"[2]; 8 weeks old (baseline, Day 1), CMT1A + AAT",3.35 ± 0.27 newtons
same,"Grip strength, group Mean","[2]; 8 weeks old, CMT + hAAT 180 mg/kg/day SC",4.81 NEWTONS
same,Grip strength (Mean ± SD),"[2]; 10 weeks old (Day 15, after 2 weeks AAT 90 mg/kg sc twice daily)",5.47 ± 1.11 newtons
same,grip strength vs untreated CMT animals,"[2]; 12 weeks of age, after 2-week treatment-free period, P<0.05",significantly higher
same,Grip strength (Mean ± SD),"[2]; 12 weeks old (Day 30, after 2-week treatment-free period)",3.87 ± 0.36 newtons
same,grip strength vs CMT mice not treated with AAT,"[2]; CMT mice, AAT 90 mg/kg sc twice a day, 8 to 10 weeks of age, end of treatment",significant increase
same,"Grip strength, group Mean","[2]; baseline (6 weeks old), CMT + hAAT",5.54 NEWTONS
same,"Grip strength, Mean/animal",[2]; [7],4.96 NEWTONS and 4.77 NEWTONS and 6.79 NEWTONS and 6.72 NEWTONS and 6.41 NEWTONS and 4.74 NEWTONS and 4.27 NEWTONS and 5.68 NEWTONS
same,"Grip strength, set 1",[2]; [7],6.56 NEWTONS and 5.62 NEWTONS and 7.24 NEWTONS and 5.90 NEWTONS and 4.97 NEWTONS and 4.35 NEWTONS and 6.08 NEWTONS and 6.51 NEWTONS
same,"Grip strength, set 2",[2]; [7],3.79 NEWTONS and 4.00 NEWTONS and 7.19 NEWTONS and 8.88 NEWTONS and 7.60 NEWTONS and 6.25 NEWTONS and 2.61 NEWTONS and 3.97 NEWTONS
same,"Grip strength, set 3",[2]; [7],4.52 NEWTONS and 4.69 NEWTONS and 5.93 NEWTONS and 5.37 NEWTONS and 6.66 NEWTONS and 3.63 NEWTONS and 4.13 NEWTONS and 6.57 NEWTONS
same,number of cells counted compared to 6-OHDA alone,[3],significantly increased
same,"Body weight, MEAN","[4]; CMT1A + hAAT, 3rd column, head prints 6 weeks old, in g (unit assumed)",19.73
same,"Body weight, individual mice","[4]; CMT1A + hAAT, 3rd column, head prints 6 weeks old, listed as hAAT, in g (unit assumed)",19.6 and 20.5 and 19.1
same,body weight loss in the AAT treated group compared to the vehicle group,"[4]; CMT1A mice, 50 mg/kg sc twice daily, two weeks",no observable body weight loss
same,effect on plasma TNFα levels,"[5]; CMT1A + AAT, day 14 and day 29",no effect
same,Plasma TNFα concentration (Mean ± SEM),[5]; Day 1 (baseline),2.94 ± 0.17 pg/mL
same,Plasma TNFα concentration (Mean ± SEM),[5]; Day 8,3.70 ± 0.41 pg/mL
same,Plasma TNFα concentration (Mean ± SEM),[5]; Day 14,5.15 ± 0.393 pg/mL
same,Plasma TNFα concentration (Mean ± SEM),[5]; Day 29,10.67 ± 0.833 pg/mL
